Test results taken from the CheMixHub viscosity set.
± gives the uncertainty stated by the source.

Assay: xn = mol fraction of the nth substance listed

CC#N + CCCCO
viscosity [mPa·s]
Conditions	298.15 K	303.15 K	308.15 K	313.15 K	318.15 K	323.15 K
101 kPa, x1 = 0.055	2.123 ± 0.027	1.695 ± 0.022	1.365 ± 0.018	–	–	–
101 kPa, x1 = 0.0999	–	1.696 ± 0.012	1.517 ± 0.011	1.364 ± 0.01	1.231 ± 0.009	1.111 ± 0.008
101 kPa, x1 = 0.1178	1.764 ± 0.022	1.422 ± 0.018	1.159 ± 0.014	–	–	–
101 kPa, x1 = 0.1952	1.449 ± 0.017	1.186 ± 0.014	0.978 ± 0.012	–	–	–
101 kPa, x1 = 0.2	–	1.322 ± 0.01	1.197 ± 0.009	1.085 ± 0.008	0.986 ± 0.007	0.9 ± 0.006
101 kPa, x1 = 0.2302	1.322 ± 0.016	1.086 ± 0.013	0.899 ± 0.011	–	–	–
101 kPa, x1 = 0.2997	–	1.054 ± 0.008	0.957 ± 0.007	0.876 ± 0.006	0.803 ± 0.006	0.738 ± 0.005
101 kPa, x1 = 0.3526	1.016 ± 0.012	0.854 ± 0.01	0.721 ± 0.008	–	–	–
101 kPa, x1 = 0.4	–	0.842 ± 0.006	0.781 ± 0.006	0.723 ± 0.005	0.667 ± 0.005	0.619 ± 0.005
101 kPa, x1 = 0.4775	0.792 ± 0.009	0.681 ± 0.008	0.585 ± 0.007	–	–	–
101 kPa, x1 = 0.5	–	0.695 ± 0.005	0.643 ± 0.005	0.601 ± 0.005	0.555 ± 0.004	0.519 ± 0.004
101 kPa, x1 = 0.5911	0.615 ± 0.007	0.538 ± 0.006	0.472 ± 0.005	–	–	–
101 kPa, x1 = 0.5998	–	0.574 ± 0.005	0.536 ± 0.004	0.502 ± 0.004	0.47 ± 0.004	0.442 ± 0.004
101 kPa, x1 = 0.6999	–	0.482 ± 0.004	0.453 ± 0.004	0.427 ± 0.004	0.402 ± 0.004	0.381 ± 0.003
101 kPa, x1 = 0.7026	0.504 ± 0.006	0.445 ± 0.005	0.397 ± 0.005	–	–	–
101 kPa, x1 = 0.7906	0.433 ± 0.005	0.391 ± 0.005	0.352 ± 0.004	–	–	–
101 kPa, x1 = 0.8	–	0.413 ± 0.004	0.391 ± 0.004	0.374 ± 0.003	0.354 ± 0.003	0.336 ± 0.003
101 kPa, x1 = 0.9	–	0.362 ± 0.003	0.345 ± 0.003	0.329 ± 0.003	0.315 ± 0.003	0.301 ± 0.003
101 kPa, x1 = 0.9094	0.383 ± 0.004	0.348 ± 0.004	0.32 ± 0.004	–	–	–
101.3 kPa, x1 = 0.1671	1.475 ± 0.035	1.336 ± 0.032	1.204 ± 0.029	–	–	–
101.3 kPa, x1 = 0.311	1.029 ± 0.025	0.937 ± 0.023	0.849 ± 0.022	–	–	–
101.3 kPa, x1 = 0.4362	0.77 ± 0.02	0.706 ± 0.018	0.65 ± 0.017	–	–	–
101.3 kPa, x1 = 0.5462	0.605 ± 0.016	0.566 ± 0.015	0.535 ± 0.015	–	–	–
101.3 kPa, x1 = 0.6436	0.484 ± 0.014	0.457 ± 0.013	0.431 ± 0.012	–	–	–
101.3 kPa, x1 = 0.7303	0.441 ± 0.013	0.408 ± 0.012	0.391 ± 0.012	–	–	–
101.3 kPa, x1 = 0.8082	0.403 ± 0.012	0.381 ± 0.011	0.361 ± 0.011	–	–	–
101.3 kPa, x1 = 0.8784	0.387 ± 0.012	0.367 ± 0.011	–	–	–	–
101.3 kPa, x1 = 0.942	0.348 ± 0.011	0.327 ± 0.01	–	–	–	–

CC#N + CCCO
viscosity [mPa·s]
Conditions	293.15 K	298.15 K	303.15 K	308.15 K	313.15 K	323.15 K
101 kPa, x1 = 0.0674	–	1.557 ± 0.02	1.267 ± 0.016	1.035 ± 0.013	–	–
101 kPa, x1 = 0.1534	–	1.243 ± 0.015	1.027 ± 0.013	0.845 ± 0.01	–	–
101 kPa, x1 = 0.2933	–	0.903 ± 0.011	0.761 ± 0.009	0.645 ± 0.008	–	–
101 kPa, x1 = 0.3889	–	0.738 ± 0.009	0.631 ± 0.007	0.54 ± 0.006	–	–
101 kPa, x1 = 0.4881	–	0.622 ± 0.007	0.539 ± 0.006	0.469 ± 0.006	–	–
101 kPa, x1 = 0.5995	–	0.519 ± 0.006	0.459 ± 0.005	0.407 ± 0.005	–	–
101 kPa, x1 = 0.703	–	0.438 ± 0.005	0.39 ± 0.005	0.351 ± 0.004	–	–
101 kPa, x1 = 0.7951	–	0.393 ± 0.005	0.354 ± 0.004	0.321 ± 0.004	–	–
101 kPa, x1 = 0.909	–	0.361 ± 0.004	0.329 ± 0.004	0.303 ± 0.004	–	–
101.3 kPa, x1 = 0.1388	–	1.295 ± 0.031	1.166 ± 0.028	1.053 ± 0.026	0.983 ± 0.024	–
101.3 kPa, x1 = 0.2787	–	0.922 ± 0.023	0.842 ± 0.021	0.769 ± 0.02	0.706 ± 0.018	–
101.3 kPa, x1 = 0.3856	–	0.747 ± 0.019	0.695 ± 0.018	0.634 ± 0.017	–	–
101.3 kPa, x1 = 0.4939	–	0.615 ± 0.016	0.574 ± 0.016	0.53 ± 0.015	–	–
101.3 kPa, x1 = 0.5945	–	0.522 ± 0.014	0.498 ± 0.014	0.465 ± 0.013	–	–
101.3 kPa, x1 = 0.6887	–	0.463 ± 0.013	0.436 ± 0.013	0.413 ± 0.012	–	–
101.3 kPa, x1 = 0.7735	–	0.421 ± 0.012	0.399 ± 0.012	0.38 ± 0.011	–	–
101.3 kPa, x1 = 0.8539	–	0.391 ± 0.012	0.374 ± 0.011	0.355 ± 0.011	–	–
101.3 kPa, x1 = 0.9294	–	0.365 ± 0.011	0.352 ± 0.011	0.334 ± 0.01	–	–
101.32 kPa, x1 = 0.0214	2.052 ± 0.016	–	1.623 ± 0.013	–	1.298 ± 0.011	1.052 ± 0.009
101.32 kPa, x1 = 0.0926	1.636 ± 0.013	–	1.329 ± 0.011	–	1.089 ± 0.009	0.8994 ± 0.0076
101.32 kPa, x1 = 0.131	1.467 ± 0.012	–	1.195 ± 0.01	–	0.9876 ± 0.0082	0.8269 ± 0.0071
101.32 kPa, x1 = 0.2287	1.114 ± 0.009	–	0.9375 ± 0.0078	–	0.7852 ± 0.0067	0.665 ± 0.0058
101.32 kPa, x1 = 0.3661	0.8314 ± 0.007	–	0.7 ± 0.0061	–	0.5983 ± 0.0053	0.5179 ± 0.0047
101.32 kPa, x1 = 0.4647	0.6986 ± 0.006	–	0.5975 ± 0.0053	–	0.5164 ± 0.0047	0.451 ± 0.0042
101.32 kPa, x1 = 0.5532	0.5951 ± 0.0053	–	0.5163 ± 0.0047	–	0.4519 ± 0.0042	0.3984 ± 0.0038
101.32 kPa, x1 = 0.6088	0.5441 ± 0.0049	–	0.4725 ± 0.0044	–	0.4163 ± 0.004	0.3701 ± 0.0036
101.32 kPa, x1 = 0.7151	0.4665 ± 0.0043	–	0.4106 ± 0.0039	–	0.3663 ± 0.0036	0.3284 ± 0.0033
101.32 kPa, x1 = 0.8071	0.4122 ± 0.0039	–	0.3683 ± 0.0036	–	0.3317 ± 0.0033	0.3003 ± 0.0031
101.32 kPa, x1 = 0.8778	0.3835 ± 0.0037	–	0.345 ± 0.0034	–	0.3126 ± 0.0032	0.2849 ± 0.003
